Data published in patent US11708340B2, “Benzothia(di)azepine compounds and their use as bile acid modulators” (Albireo AB, priority 2019, dated 2023).
pIC50: −log10 of the molar value.

Assays:
Human LBAT = molecular target: T1, Human LBAT (Homo sapiens, UniProt Q14973); assay: LBAT (h/m) assay, human LBAT-overexpressing cells, 3H-taurocholic acid uptake; format: cell-based; settings: 0.3 μM 3H-taurocholic acid and 7.5 μM cold taurocholic acid, 20 minutes, read-out: hLBAT IC50
T1 construct: expressed in transfected cells; Geneticin selection
T1 sequence (Q14973 1-349): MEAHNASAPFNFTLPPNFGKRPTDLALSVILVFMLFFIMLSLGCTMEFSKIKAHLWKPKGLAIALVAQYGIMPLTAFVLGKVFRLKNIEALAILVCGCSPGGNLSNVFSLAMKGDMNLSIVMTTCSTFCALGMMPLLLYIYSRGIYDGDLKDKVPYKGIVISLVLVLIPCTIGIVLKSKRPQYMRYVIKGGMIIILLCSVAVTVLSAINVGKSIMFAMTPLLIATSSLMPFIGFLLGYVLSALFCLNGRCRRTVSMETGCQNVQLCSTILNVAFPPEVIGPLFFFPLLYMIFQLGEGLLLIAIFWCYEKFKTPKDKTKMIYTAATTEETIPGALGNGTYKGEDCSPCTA
Description: 20,000 cells (Human or Mouse LBAT-overexpressing cells) were seeded in 96-wells plate (Corning CLS3809) in 100 μL MEM-alpha medium (Gibco 12571-063) supplemented with 10% FBS (Gibco 10438026) containing Geneticin (Gibco 10131-027) (1 mg/mL) and incubated at 37° C. in 5% CO2 for 24 hours. After incubation, media was decanted from the wells and cells were washed two times with 300 μL of basal MEM-alpha medium (FBS-free). After decanting basal MEM-alpha medium each time, plates were tapped against paper towel to ensure maximum removal of residual media.
For human LBAT, incubation mix was prepared by adding test inhibitor dilutions (3-fold serial dilution in DMSO (Sigma D2650), 10 points) in MEM-alpha (without FBS) containing 0.3 μM 3H-taurocholic acid (ARC ART-1368) and 7.5 μM cold taurocholic acid (Sigma T4009) (maintaining 0.2% final DMSO concentration). For mouse LBAT, incubation mix was prepared by adding test inhibitor dilutions (3-fold serial dilution in DMSO, 10 points) in MEM-alpha (without FBS) containing 0.3 μM 3H-taurocholic acid and 25 μM cold taurocholic acid maintaining 0.2% final DMSO concentration).
50 μL of incubation mix containing test inhibitors was then added to the wells (in duplicate) and the plates were incubated for 20 minutes in a CO2 incubator at 37° C. After incubation, the reaction was stopped by keeping the plates on ice water mix for 2-3 minutes and then the incubation mix was aspirated completely from the wells. The wells were washed two times with 250 μL of chilled unlabeled 1 mM taurocholic acid dissolved in HEPES (Gibco 15630080)-buffered (10 mM) HBSS (Gibco 14175079) (pH 7.4). The plates were tapped against a paper towel after every wash to ensure maximum removal of blocking buffer.
100 μL of MicroScint-20 (PerkinElmer 6013621) was added to the wells and kept overnight at room temperature before reading the plates in TopCount NXT™ Microplate Scintillation and Luminescence Counter from PerkinElmer under 3H Test protocol (set at 120 seconds reading time per well, with normal plate orientation).
(§1) All test compounds were provided in powder form at room temperature. 10 mM DMSO stocks of the test compounds were prepared, aliquoted and stored at −20° C. From the 10 mM DMSO stock of the compounds, a 3-fold serial dilution in DMSO was prepared to get a total of 10 dilutions of the test compounds. 0.5 μL of this dilution in DMSO was added to 250 μL of FBS-free basal media containing 3H-taurocholic acid and cold taurocholic acid to prepare the incubation mixture.

Human IBAT = molecular target: T2, Human IBAT (Homo sapiens, UniProt Q12908); assay: IBAT (h/m) assay, human IBAT-overexpressing cells, 3H-taurocholic acid uptake; format: cell-based; settings: highest test concentration 10 μM, 20 minutes, read-out: hIBAT IC50
T2 construct: expressed in transfected cells; Puromycin selection
T2 sequence (Q12908 1-348): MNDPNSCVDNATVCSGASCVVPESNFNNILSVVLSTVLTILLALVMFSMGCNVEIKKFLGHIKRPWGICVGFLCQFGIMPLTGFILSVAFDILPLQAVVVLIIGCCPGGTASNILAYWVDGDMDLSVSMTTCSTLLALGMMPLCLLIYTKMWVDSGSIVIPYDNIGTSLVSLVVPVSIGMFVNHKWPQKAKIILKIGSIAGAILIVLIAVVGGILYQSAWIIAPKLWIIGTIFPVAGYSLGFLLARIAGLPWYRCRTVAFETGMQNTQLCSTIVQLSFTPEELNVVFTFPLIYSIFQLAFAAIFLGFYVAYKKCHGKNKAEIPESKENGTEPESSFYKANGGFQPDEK
Description: 10,000 cells (Human or Mouse IBAT-overexpressing cells) were seeded in 96-wells plate (Corning CLS3809) in 200 μL MEM-alpha medium (Gibco 12571-063) supplemented with 10% FBS (Gibco 10438026) containing Puromycin (Gibco A1113803) (10 μg/mL) and incubated at 37° C. in 5% CO2 for 48 hours. After incubation, media was decanted from the wells and cells were washed two times with 300 μL of basal MEM-alpha medium (FBS-free). After decanting basal MEM-alpha medium each time, plates were tapped against paper towel to ensure maximum removal of residual media. Test inhibitor dilutions (highest test concentration being 10 μM, 3-fold serial dilution, 10 points) prepared in DMSO (Sigma D2650) were added in incubation mix (maintaining 0.2% final DMSO concentration) containing 0.25 μM 3H-taurocholic acid (ARC ART-1368) and 5 μM of cold taurocholic acid (Sigma T4009). 50 μL of incubation mix containing test inhibitors was then added to the wells (in duplicate) and the plates were incubated for 20 minutes in a CO2 incubator at 37° C. After incubation, the reaction was stopped by keeping the plates on ice water mix for 2-3 minutes and then the incubation mix was aspirated completely from the wells. The wells were washed two times with 250 μL of chilled unlabeled 1 mM taurocholic acid dissolved in HEPES (Gibco 15630080)-buffered (10 mM) HBSS (Gibco 14175079) (pH 7.4). The plates were tapped against a paper towel after every wash to ensure maximum removal of blocking buffer.
100 μL of MicroScint-20 (PerkinElmer 6013621) was added to the wells and kept overnight at room temperature before reading the plates in TopCount NXT™ Microplate Scintillation and Luminescence Counter from PerkinElmer under 3H Test protocol (set at 120 seconds reading time per well).
as §1

| pIC50 (Human LBAT) | pIC50 (Human IBAT) | Compound |
| --- | --- | --- |
| 8.47 |  | CCCCC1CN(c2ccccc2)c2cc(SC)c(O/C=C/C(=O)O)cc2S(=O)(=O)N1C (racemic) [Example 14, (E)-3-((3-butyl-2-methyl-7-(methylthio)-1,1-dioxido-5-phenyl-2,3,4,5-tetrahydro-1,2,5-benzothiadiazepin-8-yl)oxy)acrylic Acid] |
| 6.23 | < 5.00 | CCCC[C@@H]1CN(c2ccc(F)cc2)c2cc(SC)c(O/C=C/C(=O)O)cc2S(=O)(=O)N1C (single isomer, unassigned) [Example 22] |
| 7.14 |  | CCC1CN(c2ccccc2)c2cc(SC)c(O/C=C(\F)C(=O)O)cc2S(=O)(=O)C1 (centres unmarked) [Example 7, (Z)-3-((3-ethyl-7-(methylthio)-1,1-dioxido-5-phenyl-2,3,4,5-tetrahydro-1,5-benzothiazepin-8-yl)oxy)-2-fluoroacrylic Acid] |
| 8.02 | < 5.00 | CCCCC1CN(c2ccccc2)c2cc(SCC)c(O/C=C/C(=O)O)cc2S(=O)(=O)C1 (centres unmarked) [Example 30, (E)-3-((3-Butyl-7-(ethylthio)-1,1-dioxido-5-phenyl-2,3,4,5-tetrahydro-1,5-benzothiazepin-8-yl)oxy)acrylic Acid] |
| 7.15 | < 5.00 | CCCC[C@@H]1CN(c2ccccc2)c2cc(SCC)c(O/C=C/C(=O)O)cc2S(=O)(=O)N1C (single isomer, unassigned) [Example 19] |
| 6.98 |  | CCCC[C@@H]1CN(c2ccccc2)c2cc(SC)c(O/C=C/C(=O)O)cc2S(=O)(=O)N1C (single isomer, unassigned) [Example 16] |
| 8.06 | < 5.00 | CCCCC1CN(c2ccc(F)cc2)c2cc(SC)c(O/C=C/C(=O)O)cc2S(=O)(=O)C1 (racemic) [Example 26, (E)-3-((3-butyl-5-(4-fluorophenyl)-7-(methylthio)-1,1-dioxido-2,3,4,5-tetrahydro-1,5-benzothiazepin-8-yl)oxy)acrylic Acid] |
| 8.09 |  | CCCCC1CN(c2ccccc2)c2cc(SC)c(O/C=C/C(=O)O)cc2S(=O)(=O)N1 (centres unmarked) [Example 9, (E)-3-((3-butyl-7-(methylthio)-1,1-dioxido-5-phenyl-2,3,4,5-tetrahydro-1,2,5-benzothiadiazepin-8-yl)oxy)acrylic Acid] |
| 7.11 |  | CCCC[C@H]1CN(c2ccccc2)c2cc(SC)c(O/C=C(\F)C(=O)O)cc2S(=O)(=O)N1C (single isomer, unassigned) [Example 12] |
| 8.64 |  | CCCCC1CN(c2ccccc2)c2cc(SCC)c(O/C=C/C(=O)O)cc2S(=O)(=O)N1C (racemic) [Example 17, (E)-3-((3-butyl-7-(ethylthio)-2-methyl-1,1-dioxido-5-phenyl-2,3,4,5-tetrahydro-1,2,5-benzothiadiazepin-8-yl)oxy)acrylic Acid] |
| 8.72 | < 5.48 | CCCC[C@@H]1CN(c2ccc(F)cc2)c2cc(SC)c(O/C=C/C(=O)O)cc2S(=O)(=O)C1 (single isomer, unassigned) [Example 28] |
|  | < 5.00 | CCCCC1CN(c2ccc(F)cc2)c2cc(SCC)c(O/C=C/C(=O)O)cc2S(=O)(=O)C1 (centres unmarked) [Example 32, (E)-3-((3-Butyl-7-(ethylthio)-5-(4-fluorophenyl)-1,1-dioxido-2,3,4,5-tetrahydro-1,5-benzothiazepin-8-yl)oxy)acrylic Acid] |
| 6.45 | < 5.00 | CCCC[C@H]1CN(c2ccc(F)cc2)c2cc(SC)c(O/C=C/C(=O)O)cc2S(=O)(=O)C1 (single isomer, unassigned) [Example 27] |
| 7.55 |  | CCCC[C@H]1CN(c2ccccc2)c2cc(SC)c(O/C=C(\F)C(=O)O)cc2S(=O)(=O)C1 (single isomer, unassigned) [Example 5] |
| 6.62 |  | CCC1CN(c2ccccc2)c2cc(SC)c(O/C=C/C(=O)O)cc2S(=O)(=O)C1 (centres unmarked) [Example 8, (E)-3-((3-ethyl-7-(methylthio)-1,1-dioxido-5-phenyl-2,3,4,5-tetrahydro-1,5-benzothiazepin-8-yl)oxy)acrylic Acid] |
| 8.52 | 6.19 | CCCC[C@H]1CN(c2ccc(F)cc2)c2cc(SC)c(O/C=C/C(=O)O)cc2S(=O)(=O)N1C (single isomer, unassigned) [Example 21] |
| 9.47 | 6.58 | CCCC[C@H]1CN(c2ccc(F)cc2)c2cc(SCC)c(O/C=C/C(=O)O)cc2S(=O)(=O)N1C (single isomer, unassigned) [Example 24] |
| 6.57 |  | CCCC[C@@H]1CN(c2ccc(F)cc2)c2cc(SCC)c(O/C=C/C(=O)O)cc2S(=O)(=O)N1C (single isomer, unassigned) [Example 25] |
| 6.33 |  | CCCC[C@@H]1CN(c2ccccc2)c2cc(SC)c(O/C=C/C(=O)O)cc2S(=O)(=O)C1 (single isomer, unassigned) [Example 2] |
| 8.35 | 5.94 | CCCCC1CN(c2ccc(F)cc2)c2cc(SC)c(O/C=C/C(=O)O)cc2S(=O)(=O)N1C (racemic) [Example 20, (E)-3-((3-butyl-5-(4-fluorophenyl)-2-methyl-7-(methylthio)-1,1-dioxido-2,3,4,5-tetrahydro-1,2,5-benzothiadiazepin-8-yl)oxy)acrylic Acid] |
|  | < 5.00 | CCCCC1CN(c2ccccc2)c2cc(SCC)c(O/C=C/C(=O)O)cc2S(=O)(=O)N1 (centres unmarked) [Example 31, (E)-3-((3-Butyl-7-(ethylthio)-1,1-dioxido-5-phenyl-2,3,4,5-tetrahydro-1,2,5-benzothiadiazepin-8-yl)oxy)acrylic Acid] |
| 8.96 | 6.08 | CCCCC1CN(c2ccccc2)c2cc(SC)c(O/C=C(\F)C(=O)O)cc2S(=O)(=O)N1C (centres unmarked) [Example 11, (Z)-3-((3-butyl-2-methyl-7-(methylthio)-1,1-dioxido-5-phenyl-2,3,4,5-tetrahydro-1,2,5-benzothiadiazepin-8-yl)oxy)-2-fluoroacrylic Acid] |
